Where a name gives a salt, the structure may show the parent alone.

For orientation: EC50 means the concentration at which the effect is half-maximal.

Data set [1] is described as follows: Surface tension / critical micelle concentration (Fisher Scientific Surface Tensiometer). The format is physicochemical. Here is the method:
The surface activity of SPI also was determined. In this test, dilutions of SPI were prepared and the surface tension of each solution measured using a Fisher Scientific Surface Tensiometer. The critical micelle concentration (CMC) of SPI was estimated as the minimum concentration at which the surface tension remains constant. For SPI, the CMC is about 0.10 mg/mL. […] Accordingly, the addition of sulfate groups to PI alters its aqueous behavior, shifting the tendency of the phospholipid from forming vesicles to forming micelles.

In a further data set the test system is HIV-1 virus. Description: In vitro anti-HIV activity, XTT/formazan cell viability protection (NCI, method of Gustafson et al.). The format is cell-based, HIV-1 (human lymphoblastoid cells). The settings on record: Human immunodeficiency virus 1, 168 h; Table 3; 7 days; PSL values normalized to SPI content. Here is the method:
A number of formulations of SPI and PSLs were prepared and their in vitro anti-HIV activity determined by the National Cancer Institute at the National Institutes of Health, Bethesda, Md., using the method of Gustafson et al, J. Nat. Can. Inst., 81(16), 1254-1258 (1989). Varying concentrations of each formulation were mixed with cultured human lymphoblastoid cells, then cocultivated with host cells chronically infected with HIV-1 virus at 37° C. After 7 days, the cell culture is incubated with a mixture of tetrazolium salt XTT and phenazine methylsulfate for 4 hours. […] Formazan absorbs visible light at 450 nm. Therefore, the amount of formazan produced is a direct measurement of cell viability and, consequently, an estimate of the anti-HIV activity of each formulation. Formazan production in normal, uninfected cells is labelled as control.
In particular, the following compositions were assayed for anti-HIV activity. The data and effective concentration (ED50), i.e., the minimum concentration that protects 50% of the cells against infection, of each composition are summarized in FIGS. 5-7 and the results summarized in Table 3. Control values were obtained by incubating lymphoblastoid cells with each formulation in the absence of HIV. […]
Background: Tetrazolium dyes change colour on reduction, which living cells bring about.

Turning to phosphatidylinositol [PI], the “behavior on addition of water (in words)” value in data set [1] is given as “formation of phosphatidylinositol liposomes”. Moreover, in data set [1] (surface tension measurements, compared with SPI), the “surface activity (in words)” value is recorded as “no similar surface activity”.

As for `CC(C)Nc1cccnc1N1CCN(C(=O)c2cc3cc(NS(C)(=O)=O)ccc3[nH]2)CC1` [Delaviridine, Delaviridine mesylate, reference compound], the EC50 with HIV-1 virus turned out to be 0.031 mg/L.

The record behind these values is US6316424A, “Sulfated phosphatidylinositols, their preparation and use of the same” (The Board of Trustees of the University of Illinois, priority 2000, dated 2001).
